Experimental data as given in ChEMBL document CHEMBL1201862, “PubChem BioAssay data set” (2004).
Active and inactive are the calls of the source.

Assays:
[1] = viability loss of HMLE_sh_eGFP cells – cell-based, luminescence, counter-screen for HMLE_sh_ECad selective toxicity project, dose response (AID 463074); assay type: functional, Homo sapiens;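 note: HMLE human mammary epithelial cells expressing control shRNA against eGFP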
[2] = HEK-293T viability loss after treatment – luminescence, T-cell screen hits, cytotoxicity control for TCR NF-kB inhibitor project, dose response (AID 489026); assay type: functional, cell-based;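 note: cells exposed to compound about 14 hours before the viability readout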
BJ [3] = assay: BJ-TERT fibroblast viability loss – cell-based, RAS-independent, luminescence, dose response (AID 1933); assay type: functional; settings: Homo sapiens
[4] = DRD fibroblast viability loss – cell-based, non-viral oncogenic, luminescence, dose response (AID 1934); assay type: functional; settings: Homo sapiens
[5] = Luminescence Cell-Based Dose Retest to Confirm Inhibitors of Cancer Stem Cells. [Related pubchem assays (depositor defined):AID2717, AID2721]; assay type: functional; settings: Homo sapiens
BJ [6] = assay: growth inhibition of engineered Ras-driven BJ cells – cell-based, alamar blue fluorescence, cherrypicked samples, dose response (AID 2631); assay type: functional; settings: Homo sapiens;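 note: confirmatory dose-response assay in RAS-dependent BJ fibroblasts engineered with TERT, LT and ST, with cytotoxicity read by fluorescence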
BJ [7] = assay: cells; assay type: functional, cell-based; settings: Homo sapiens
[8] = molecular target: T1, Tyrosine-protein phosphatase non-receptor type 22 (Homo sapiens, UniProt Q9Y2R2); assay type: functional
T1 sequence (Q9Y2R2 whole entry): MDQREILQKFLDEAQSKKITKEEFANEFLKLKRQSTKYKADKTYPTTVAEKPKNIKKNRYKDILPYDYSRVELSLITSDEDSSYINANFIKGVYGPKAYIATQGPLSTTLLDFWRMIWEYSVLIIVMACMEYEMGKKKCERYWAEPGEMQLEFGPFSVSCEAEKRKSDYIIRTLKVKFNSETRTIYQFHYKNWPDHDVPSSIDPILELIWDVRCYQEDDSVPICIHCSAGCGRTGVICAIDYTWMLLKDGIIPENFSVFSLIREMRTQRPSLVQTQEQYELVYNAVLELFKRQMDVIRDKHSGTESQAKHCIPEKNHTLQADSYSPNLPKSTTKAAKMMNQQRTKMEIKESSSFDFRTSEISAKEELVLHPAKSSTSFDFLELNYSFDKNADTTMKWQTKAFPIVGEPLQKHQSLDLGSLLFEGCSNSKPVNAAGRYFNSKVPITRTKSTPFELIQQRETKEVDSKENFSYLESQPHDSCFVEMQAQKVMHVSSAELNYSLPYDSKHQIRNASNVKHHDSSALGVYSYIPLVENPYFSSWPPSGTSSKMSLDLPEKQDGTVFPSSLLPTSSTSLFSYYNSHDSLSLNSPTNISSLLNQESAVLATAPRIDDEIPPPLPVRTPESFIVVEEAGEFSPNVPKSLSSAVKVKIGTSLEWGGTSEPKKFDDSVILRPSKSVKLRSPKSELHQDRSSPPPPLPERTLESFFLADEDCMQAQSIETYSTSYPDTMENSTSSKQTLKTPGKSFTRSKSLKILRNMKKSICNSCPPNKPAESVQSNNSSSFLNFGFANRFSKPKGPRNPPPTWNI

[9] = molecular target: T1, Tyrosine-protein phosphatase non-receptor type 22; assay type: functional; remark: listed apart in the source
[10] = molecular target: T2, Tyrosine-protein phosphatase non-receptor type 7 (Homo sapiens, UniProt P35236); assay type: functional
T2 sequence (P35236 whole entry): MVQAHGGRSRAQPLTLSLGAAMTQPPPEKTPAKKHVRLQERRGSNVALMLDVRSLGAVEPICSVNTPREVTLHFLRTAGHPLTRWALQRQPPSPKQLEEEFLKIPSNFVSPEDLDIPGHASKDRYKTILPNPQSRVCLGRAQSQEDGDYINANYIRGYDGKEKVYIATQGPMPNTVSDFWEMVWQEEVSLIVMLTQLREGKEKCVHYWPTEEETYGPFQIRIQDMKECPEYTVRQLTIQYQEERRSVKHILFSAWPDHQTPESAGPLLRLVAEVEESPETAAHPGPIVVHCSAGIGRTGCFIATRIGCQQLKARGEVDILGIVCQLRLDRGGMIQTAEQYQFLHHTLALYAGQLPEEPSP

Vero = assay: cells; assay type: functional; settings: Chlorocebus sabaeus
Beta-galactosidase = Beta-galactosidase (Escherichia coli, UniProt Q8VNN2); assay type: functional
[11] = molecular target: T3, Delta-type opioid receptor (Homo sapiens, UniProt P41143); assay: HTS Image-Based Screen for Antagonists of the DOR Receptor. [Related pubchem assays (depositor defined):AID1777, AID1785, AID1786, AID2133]; assay type: functional
[12] = molecular target: T4, Kappa-type opioid receptor (Homo sapiens, UniProt P41145); assay type: functional
[13] = molecular target: T4, Kappa-type opioid receptor; assay type: functional; remark: listed apart in the source
[14] = molecular target: T3, Delta-type opioid receptor; assay: HTS Image-Based Screen for Agonists of the DOR Receptor. [Related pubchem assays (depositor defined):AID1777, AID1786, AID2133]; assay type: functional
Mu-type opioid receptor = Mu-type opioid receptor (Homo sapiens, UniProt P35372); assay: HTS Image-Based Screen for Agonists of the MOR Receptor. [Related pubchem assays (depositor defined):AID1777, AID1785, AID1786, AID2133]; assay type: functional;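 note: imaging of beta-arrestin GFP recruitment into spots after receptor activation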
[15] = molecular target: T5, Ubiquitin-conjugating enzyme E2 N (Homo sapiens, UniProt P61088); assay type: functional
T5 sequence (P61088 whole entry): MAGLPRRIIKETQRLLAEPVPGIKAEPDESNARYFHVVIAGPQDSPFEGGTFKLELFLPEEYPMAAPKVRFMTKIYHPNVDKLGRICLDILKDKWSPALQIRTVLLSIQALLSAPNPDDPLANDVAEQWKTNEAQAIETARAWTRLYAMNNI

[16] = molecular target: T6, RNA-editing ligase 1, mitochondrial (Trypanosoma brucei brucei, UniProt P86926); assay: inhibition of trypanosome RNA editing ligase – biochemical, fluorescence, Trypanosoma brucei, dose response (AID 1117295); assay type: functional
T6 sequence (P86926 whole entry): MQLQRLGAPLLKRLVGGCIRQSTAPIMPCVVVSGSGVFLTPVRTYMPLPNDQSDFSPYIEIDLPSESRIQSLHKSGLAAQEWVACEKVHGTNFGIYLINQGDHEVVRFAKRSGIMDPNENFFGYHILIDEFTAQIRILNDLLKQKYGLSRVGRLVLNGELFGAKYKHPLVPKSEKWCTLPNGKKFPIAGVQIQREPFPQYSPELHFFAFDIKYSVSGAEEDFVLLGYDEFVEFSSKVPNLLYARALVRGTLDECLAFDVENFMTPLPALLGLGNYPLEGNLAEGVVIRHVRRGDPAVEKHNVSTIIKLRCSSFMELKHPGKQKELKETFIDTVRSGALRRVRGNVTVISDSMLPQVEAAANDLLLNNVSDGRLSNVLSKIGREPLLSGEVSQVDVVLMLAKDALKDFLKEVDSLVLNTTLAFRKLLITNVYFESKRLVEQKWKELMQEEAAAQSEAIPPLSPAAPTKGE

[17] = molecular target: T5, Ubiquitin-conjugating enzyme E2 N; assay type: functional; remark: listed apart in the source
Bcl-2-related protein A1 = molecular target: T7, Bcl-2-related protein A1 (Mus musculus, UniProt Q07440); assay type: functional;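 note: confirmatory dose–response counterscreen on Bfl-1, used to check hits from a UBC13 polyubiquitin inhibitor campaign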
T7 sequence (Q07440 whole entry): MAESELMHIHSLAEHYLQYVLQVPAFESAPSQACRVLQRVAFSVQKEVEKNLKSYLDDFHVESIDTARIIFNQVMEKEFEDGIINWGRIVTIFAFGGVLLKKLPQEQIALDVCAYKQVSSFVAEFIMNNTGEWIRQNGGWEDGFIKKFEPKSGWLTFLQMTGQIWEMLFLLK

T3 sequence (P41143 whole entry): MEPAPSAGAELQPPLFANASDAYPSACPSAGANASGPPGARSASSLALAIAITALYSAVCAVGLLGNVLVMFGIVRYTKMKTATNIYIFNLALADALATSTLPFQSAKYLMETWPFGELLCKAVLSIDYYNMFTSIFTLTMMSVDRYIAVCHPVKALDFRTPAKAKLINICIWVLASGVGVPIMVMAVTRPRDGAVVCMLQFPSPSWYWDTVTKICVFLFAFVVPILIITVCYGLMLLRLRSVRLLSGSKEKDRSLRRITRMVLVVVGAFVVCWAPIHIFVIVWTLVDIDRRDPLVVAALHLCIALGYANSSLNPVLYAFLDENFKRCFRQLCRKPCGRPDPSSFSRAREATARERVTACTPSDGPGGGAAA
T4 sequence (P41145 whole entry): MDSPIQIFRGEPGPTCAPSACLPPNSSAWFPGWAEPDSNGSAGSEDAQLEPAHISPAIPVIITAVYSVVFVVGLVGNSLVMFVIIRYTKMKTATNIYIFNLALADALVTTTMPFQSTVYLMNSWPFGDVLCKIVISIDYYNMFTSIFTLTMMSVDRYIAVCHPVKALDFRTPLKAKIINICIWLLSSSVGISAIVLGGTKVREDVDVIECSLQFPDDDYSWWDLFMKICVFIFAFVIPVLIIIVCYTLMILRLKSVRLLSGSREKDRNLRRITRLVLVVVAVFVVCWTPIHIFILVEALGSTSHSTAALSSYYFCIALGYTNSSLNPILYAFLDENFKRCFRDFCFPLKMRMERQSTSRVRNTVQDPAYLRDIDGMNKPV
Sequence of Mu-type opioid receptor (P35372 whole entry): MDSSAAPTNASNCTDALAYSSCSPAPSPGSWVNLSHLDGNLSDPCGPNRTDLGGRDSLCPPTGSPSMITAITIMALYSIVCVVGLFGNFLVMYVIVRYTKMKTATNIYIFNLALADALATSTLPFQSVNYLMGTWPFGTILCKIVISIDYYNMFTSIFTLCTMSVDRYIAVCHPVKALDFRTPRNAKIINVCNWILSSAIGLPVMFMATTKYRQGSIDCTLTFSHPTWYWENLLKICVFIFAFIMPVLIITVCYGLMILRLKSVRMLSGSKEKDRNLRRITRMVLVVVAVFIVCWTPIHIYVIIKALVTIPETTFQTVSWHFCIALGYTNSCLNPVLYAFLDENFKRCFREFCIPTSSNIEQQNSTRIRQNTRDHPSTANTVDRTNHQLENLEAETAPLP
Sequence of Beta-galactosidase (Q8VNN2 whole entry): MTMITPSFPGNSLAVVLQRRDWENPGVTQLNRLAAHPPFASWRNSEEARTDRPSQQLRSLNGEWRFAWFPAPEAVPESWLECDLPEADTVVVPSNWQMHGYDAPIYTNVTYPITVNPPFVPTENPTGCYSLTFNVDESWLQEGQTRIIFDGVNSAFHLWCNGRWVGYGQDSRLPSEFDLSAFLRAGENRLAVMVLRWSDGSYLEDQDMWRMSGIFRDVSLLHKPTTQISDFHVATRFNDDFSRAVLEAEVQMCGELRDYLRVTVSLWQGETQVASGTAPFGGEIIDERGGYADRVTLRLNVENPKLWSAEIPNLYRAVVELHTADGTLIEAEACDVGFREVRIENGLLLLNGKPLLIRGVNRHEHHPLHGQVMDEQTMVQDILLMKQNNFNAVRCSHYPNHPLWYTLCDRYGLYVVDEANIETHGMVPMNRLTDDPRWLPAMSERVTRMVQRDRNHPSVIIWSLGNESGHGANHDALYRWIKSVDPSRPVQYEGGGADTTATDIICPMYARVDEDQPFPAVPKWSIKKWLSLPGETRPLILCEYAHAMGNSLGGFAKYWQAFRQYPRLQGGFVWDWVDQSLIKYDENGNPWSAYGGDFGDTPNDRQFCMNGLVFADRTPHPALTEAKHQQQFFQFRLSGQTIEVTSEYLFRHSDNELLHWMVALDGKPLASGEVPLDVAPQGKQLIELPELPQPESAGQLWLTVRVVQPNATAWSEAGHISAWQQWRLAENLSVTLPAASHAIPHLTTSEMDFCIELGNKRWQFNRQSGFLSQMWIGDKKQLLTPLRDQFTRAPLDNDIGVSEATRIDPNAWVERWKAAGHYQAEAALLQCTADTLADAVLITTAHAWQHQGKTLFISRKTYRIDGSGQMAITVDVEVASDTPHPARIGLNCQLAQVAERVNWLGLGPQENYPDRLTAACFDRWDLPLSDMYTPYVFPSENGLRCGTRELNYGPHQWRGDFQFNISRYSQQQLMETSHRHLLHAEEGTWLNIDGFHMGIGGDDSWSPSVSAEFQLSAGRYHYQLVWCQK

Cc1ccc(C)c(NS(=O)(=O)c2ccc(-c3cnc(C4CC4)o3)cc2)c1
AC50 [1]: 8.44 µM (inconclusive) | IC50 [2]: 54 µM (inactive) | EC50 (BJ [3]): 0.15 µM (active) | EC50 [4]: < 0.12 µM (active) | AC50 [5]: < 0.16 µM (active) | EC50 (BJ [6]): < 0.104 µM (active) | EC50 (BJ [7]): 0.298 µM (active)

O=C1OC(c2ccc(Br)cc2)=N/C1=C\c1ccco1
IC50 [8]: > 79.4 µM (inactive) | IC50 [9]: > 79.4 µM (inactive) | IC50 [10]: > 79.4 µM (inactive)

COc1ccc(C[C@H]2CN3C(=NC[C@@H]3C(C)C)N2C[C@H](C)NC(=O)c2ccc(C)c(Br)c2)cc1
CC50 (Vero): 16.3 µM (active) | EC50 (Beta-galactosidase): > 31.5 µM (inactive) | IC50 [11]: > 32 µM (inactive) | IC50 [12]: 2.07 µM | IC50 [13]: 6.35 µM (active) | EC50 [14]: > 32 µM (inactive) | EC50 (Mu-type opioid receptor): > 32 µM (inactive) | IC50 [15]: > 20 µM (inactive) | IC50 [16]: > 96.6 µM (inactive)

COc1ccccc1NC(=O)c1cc(S(=O)(=O)N2CCCCCC2)ccc1F
IC50 [17]: 9.99 µM (active) | IC50 (Bcl-2-related protein A1): > 20 µM (inactive) | IC50 [15]: 10.6 µM (active)
